Values of other authors as cited in patent publication US20080152724A1, “TREATMENT OF PER[…] AN […] RELEASE IODINE” (priority 2006, published 2008).

System: test strains
Conditions: all of the test strains; after 30 seconds of exposure

SMILES: N=C(NCCCCCCNC(=N)NC(=N)Nc1ccc(Cl)cc1)NC(=N)Nc1ccc(Cl)cc1.O=C(O)[C@H](O)[C@@H](O)[C@H](O)[C@H](O)CO.O=C(O)[C@H](O)[C@@H](O)[C@H](O)[C@H](O)CO [chlorhexidine gluconate]
- bactericidal activity: residual bacteria were observed in most species
